In patent US7402587B2, “Crystalline forms of a pyridinyl-sulfonamide and their use as endothelin receptor antagonists” (Speedel Pharma AG, priority 2004, dated 2008):

What was measured:
Format in all cases: physicochemical
[1] = Hygroscopicity: water adsorption when stored under humid conditions; conditions: hygroscopic, water released between 50° C. and 200° C. when heated at 10° C./minute
Protocol: Polymorph form A is a solid powder with a particle size in the range from 1 to 500 μm, preferably 5 to 300 μm, and more preferably 5 to 200 μm. The polymorph A is hygroscopic and adsorbs water to a content of about 5 percent by weight (when stored under humid conditions), which is continuously released between 50° C. and 200° C., when heated at a rate of 10° C./minute. The polymorph A is especially suitable as an intermediate and starting material to produce stable polymorph forms.

[2] = Thermodynamic stability of the crystalline forms (own investigations); conditions: compared with the other crystalline forms
Text: Own investigations have shown that there exist two distinct crystalline forms, hereinafter referred to as form A and form B, as well as a number of further solvates, in particular the methanol, ethanol, isopropanol, dichloromethane, acetone, methyl ethyl ketone and tetrahydrofuran solvates.

[3] = Light sensitivity of solutions and suspensions; conditions: in particular above ambient temperature

COc1ccccc1Oc1c(NS(=O)(=O)c2ccc(C)cn2)nc(-c2ccncc2)nc1OC [form A, 5-methyl-pyridine-2-sulfonic acid [6-methoxy-5-(2-methoxy-phenoxy)-2-pyridin-4-yl-pyrimidin-4-yl]-amide]
adsorbs water to a content of [1]: about 5 percent by weight

COc1ccccc1Oc1c(NS(=O)(=O)c2ccc(C)cn2)nc(-c2ccncc2)nc1OC [form B, 5-methyl-pyridine-2-sulfonic acid [6-methoxy-5-(2-methoxy-phenoxy)-2-pyridin-4-yl-pyrimidin-4-yl]-amide]
thermodynamic stability of crystalline form [2]: thermodynamically stable

COc1ccccc1Oc1c(NS(=O)(=O)c2ccc(C)cn2)nc(-c2ccncc2)nc1OC [SPP301, 5-methyl-pyridine-2-sulfonic acid [6-methoxy-5-(2-methoxy-phenoxy)-2-pyridin-4-yl-pyrimidin-4-yl]-amide]
sensitivity to light [3]: sensitive to light
